Key:
[1] = biological target: T1, human adrenergic-α2A receptor (Homo sapiens, UniProt P08913); assay: Radioligand binding experiment for hα2A-adrenergic receptor ([3H]raulwolscine); settings: [3H]raulwolscine 1 nM, 60 minutes at 25° C.; for IC50: read-out: h-α2A pIC50 (converted)
T1 construct: expressed in transfected cells; host or cells: CHO cells, stably transfected; membrane preparation
T1 sequence (P08913 1-465): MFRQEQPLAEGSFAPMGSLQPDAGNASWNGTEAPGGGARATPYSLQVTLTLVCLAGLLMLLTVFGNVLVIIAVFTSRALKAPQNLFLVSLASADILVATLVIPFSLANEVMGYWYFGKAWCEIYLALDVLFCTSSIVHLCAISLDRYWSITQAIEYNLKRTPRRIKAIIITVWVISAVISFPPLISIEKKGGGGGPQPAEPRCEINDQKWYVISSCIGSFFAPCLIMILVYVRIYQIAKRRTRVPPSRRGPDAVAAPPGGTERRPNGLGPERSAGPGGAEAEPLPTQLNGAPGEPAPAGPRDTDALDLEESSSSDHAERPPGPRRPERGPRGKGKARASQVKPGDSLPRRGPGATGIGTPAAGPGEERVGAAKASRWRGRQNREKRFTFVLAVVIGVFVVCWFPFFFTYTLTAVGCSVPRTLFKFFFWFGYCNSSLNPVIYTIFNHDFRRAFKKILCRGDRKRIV
How it was run: (§1)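 CHO membranes expressing human α2A or α2C receptors were incubated with 1 nM [^3H]raulwolscine for 60 min at 25° C in glycylglycine 25 mM, pH 8.0, then filtered. Nonspecific binding was defined with 1 μM oxymetazoline for α2A and 1 μM spiroxatrine for α2C. pIC50 came from sigmoidal competition curves.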

[2] = biological target: T2, human adrenergic-α2C receptor (Homo sapiens, UniProt P18825); assay: Radioligand binding experiment for hα2C-adrenoceptor ([3H]raulwolscine); settings: [3H]raulwolscine 1 nM, 60 minutes at 25° C.; for IC50: read-out: h-α2C pIC50 (converted)
T2 construct: expressed in transfected cells; host or cells: CHO cells, stably transfected; membrane preparation
T2 sequence (P18825 1-462): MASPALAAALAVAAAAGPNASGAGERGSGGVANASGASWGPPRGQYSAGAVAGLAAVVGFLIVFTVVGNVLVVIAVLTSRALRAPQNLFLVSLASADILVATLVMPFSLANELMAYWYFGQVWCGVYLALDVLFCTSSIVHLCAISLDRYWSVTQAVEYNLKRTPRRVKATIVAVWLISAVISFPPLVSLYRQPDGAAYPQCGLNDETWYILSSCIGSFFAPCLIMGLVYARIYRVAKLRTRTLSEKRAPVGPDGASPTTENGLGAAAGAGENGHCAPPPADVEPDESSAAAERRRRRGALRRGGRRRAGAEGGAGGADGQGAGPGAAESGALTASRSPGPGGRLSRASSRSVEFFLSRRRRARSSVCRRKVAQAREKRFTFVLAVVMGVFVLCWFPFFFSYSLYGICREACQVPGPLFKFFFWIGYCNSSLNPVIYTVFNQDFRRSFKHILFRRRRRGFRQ
How it was run: as §1

[3] = biological target: T3, 5HT-transporter (Homo sapiens, UniProt P31645); assay: Binding experiment for the 5HT-transporter ([3H]paroxetine, human platelet membranes); settings: [3H]paroxetine 0.5 nM, 60 min at 25° C.; for IC50: read-out: h-5HTT pIC50 (converted)
T3 construct: Human platelet membranes (Oceanix Biosciences Corporation, Hanover, Md., USA) were thawed; tissue Oceanix Biosciences Corporation, Hanover, Md., USA; host or cells: human platelet membranes
How it was run: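 Competition binding of [3H]paroxetine to human platelet membranes in Tris-HCl 50 mM with 120 mM NaCl and 5 mM KCl; bound radioligand separated by GF/B filtration and counted.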

T3 sequence (P31645 whole entry): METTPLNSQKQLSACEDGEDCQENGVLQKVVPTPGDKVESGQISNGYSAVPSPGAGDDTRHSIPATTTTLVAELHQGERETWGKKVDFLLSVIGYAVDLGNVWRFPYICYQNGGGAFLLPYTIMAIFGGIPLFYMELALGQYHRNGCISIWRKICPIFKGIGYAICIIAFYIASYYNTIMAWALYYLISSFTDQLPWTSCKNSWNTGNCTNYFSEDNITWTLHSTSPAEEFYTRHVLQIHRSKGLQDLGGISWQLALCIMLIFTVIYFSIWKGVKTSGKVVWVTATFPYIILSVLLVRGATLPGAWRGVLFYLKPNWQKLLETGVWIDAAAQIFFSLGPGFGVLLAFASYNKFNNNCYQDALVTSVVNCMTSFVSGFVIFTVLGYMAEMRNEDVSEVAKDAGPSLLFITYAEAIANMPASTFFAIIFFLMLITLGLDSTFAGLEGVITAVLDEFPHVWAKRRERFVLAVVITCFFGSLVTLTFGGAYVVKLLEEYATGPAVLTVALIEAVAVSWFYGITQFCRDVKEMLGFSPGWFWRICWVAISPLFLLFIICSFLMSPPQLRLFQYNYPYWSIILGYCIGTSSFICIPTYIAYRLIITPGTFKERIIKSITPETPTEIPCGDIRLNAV

Row | h-α2A pIC50 [1] | h-α2C pIC50 [2] | h-5HTT pIC50 [3] | IC50 [1] [nM] | IC50 [2] [nM] | IC50 [3] [nM] | Structure (SMILES)
1 | 6.9 | 7.8 | 8.3 |  |  |  | CN1CCN(Cc2ccc(-n3ccnc(NC4CCN(Cc5ccc6ccccc6c5)CC4)c3=O)cc2)CC1 [2-02]
2 |  |  |  | 100 | 25.1 | 12.6 | CN1CCN(c2ccc(-n3ccnc(NC4CCN(Cc5ccc6ccccc6c5)CC4)c3=O)cc2)CC1 [2-03]
3 |  |  |  | 126 | 25.1 | 31.6 | O=C1CN(Cc2ccc(-n3ccnc(NC4CCN(Cc5ccc6ccccc6c5)CC4)c3=O)cc2)CCN1 [2-04]
4 |  |  |  | 251 | 39.8 | 200 | O=C(Cn1ccnc(NC2CCN(Cc3ccc4ccccc4c3)CC2)c1=O)N1CCN(c2ccccc2)CC1 [2-05]
5 |  |  |  | 398 | 7.94 | 316 | O=C(Cn1ccnc(NC2CCN(Cc3ccc4ccccc4c3)CC2)c1=O)N1CCN(Cc2ccccc2)CC1 [2-06]
6 |  |  |  | 398 | 79.4 | 63.1 | Cc1ccc(N2CCN(C(=O)Cn3ccnc(NC4CCN(Cc5ccc6ccccc6c5)CC4)c3=O)CC2)cc1C [2-07]
7 |  |  |  | 1000 | 158 | 501 | O=c1c(NC2CCN(Cc3ccc4ccccc4c3)CC2)nccn1CCN1CCOCC1 [2-09]
8 |  |  |  | 200 | 10 | 7.94 | O=c1c(NC2CCN(Cc3ccc4ccccc4c3)CC2)nccn1-c1ccc(CN2CCCCC2)cc1 [2-11]
9 | 7.3 | 8.1 | 8.4 |  |  |  | O=c1c(NC2CCN(Cc3ccc4ccccc4c3)CC2)nccn1-c1ccc(CN2CCC(F)CC2)cc1 [2-12]
10 |  |  |  | 63.1 | 3.98 | 6.31 | O=c1c(NC2CCN(Cc3ccc4ccccc4c3)CC2)nccn1-c1ccc(CN2CCC(F)CC2)c(F)c1 [2-13]
11 |  |  |  | 158 | 10 | 5.01 | O=c1c(NC2CCN(Cc3ccc4ccccc4c3)CC2)nccn1-c1ccc(CN2CCC(O)CC2)cc1 [2-14]
12 |  |  |  | 251 | 31.6 | 200 | O=C(Cn1ccnc(NC2CCN(Cc3ccc4ccccc4c3)CC2)c1=O)N1CCC(Cc2ccccc2)CC1 [2-15]
13 |  |  |  | 501 | 126 | 1260 | O=C(Cn1ccnc(NC2CCN(Cc3ccc4ccccc4c3)CC2)c1=O)N1CCC(C(F)(F)F)CC1 [2-16]
14 | 6.6 | 8.2 | 8.6 |  |  |  | O=c1c(NC2CCN(Cc3ccc4ccccc4c3)CC2)nccn1-c1ccc(CN2CCC(Oc3cccnc3)CC2)cc1 [2-17]
15 |  |  |  | 251 | 25.1 | 100 | O=c1c(NC2CCN(Cc3ccc4ccccc4c3)CC2)nccn1CCO [3-01]
16 |  |  |  | 631 | 100 | 200 | O=c1c(NC2CCN(Cc3ccc4ccccc4c3)CC2)nccn1CCCO [3-02]
17 |  |  |  | 398 | 63.1 | 158 | O=c1c(NC2CCN(Cc3ccc4ccccc4c3)CC2)nccn1CCCCO [3-03]
18 |  |  |  | 1000 | 79.4 | 398 | COC(=O)CCn1ccnc(NC2CCN(Cc3ccc4ccccc4c3)CC2)c1=O [3-04]
19 |  |  |  | 200 | 63.1 | 79.4 | CCOC(=O)CCCn1ccnc(NC2CCN(Cc3ccc4ccccc4c3)CC2)c1=O [3-06]
20 |  |  |  | 79.4 | 12.6 | 10 | CCOC(=O)CCCCn1ccnc(NC2CCN(Cc3ccc4ccccc4c3)CC2)c1=O [3-08]
21 |  |  |  | 316 | 100 | 12.6 | O=c1c(NC2CCN(Cc3ccc4ccccc4c3)CC2)nccn1CCOc1ccccc1 [3-09]
22 |  |  |  | 126 | 50.1 | 15.8 | O=c1c(NC2CCN(Cc3ccc4ccccc4c3)CC2)nccn1CCCOc1ccccc1 [3-10]
23 |  |  |  | 251 | 25.1 | 20 | O=c1c(NC2CCN(Cc3ccc4ccccc4c3)CC2)nccn1CCCOCc1ccccc1 [3-11]

Row | h-α2A pIC50 [1] | h-α2C pIC50 [2] | h-5HTT pIC50 [3] | IC50 [1] [nM] | IC50 [2] [nM] | IC50 [3] [nM] | Structure (SMILES)
24 |  |  |  | 631 | 79.4 | 79.4 | O=c1c(NC2CCN(Cc3ccc4ccccc4c3)CC2)nccn1CCOC1CCCCO1 (stereo not drawn) [3-12]
25 |  |  |  | 251 | 3.98 | 15.8 | O=c1c(NC2CCN(Cc3ccc4ccccc4c3)CC2)nccn1-c1ccc(COCC2CCCO2)cc1 (stereo not drawn) [3-14]
26 |  |  |  | 1260 | 100 | 200 | CCOC(CCn1ccnc(NC2CCN(Cc3ccc4ccccc4c3)CC2)c1=O)OC (stereo not drawn) [4-01]
27 |  |  |  | 794 | 79.4 | 251 | CCOC(CCn1ccnc(NC2CCN(Cc3ccc4ccccc4c3)CC2)c1=O)OCC [4-02]
28 |  |  |  | 1000 | 100 | 316 | COC(CCn1ccnc(NC2CCN(Cc3ccc4ccccc4c3)CC2)c1=O)OC [4-03]
29 |  |  |  | 501 | 79.4 | 158 | O=c1c(NC2CCN(Cc3ccc4ccccc4c3)CC2)nccn1CCC1OCCO1 [4-04]
30 |  |  |  | 20 | 31.6 | 10 | O=c1c(NC2CCN(Cc3ccc4ccccc4c3)CC2)nccn1-c1ccc2c(c1)OCCO2 [4-05]
31 |  |  |  | 501 | 126 | 1260 | O=c1[nH]ccnc1NC1CCN(Cc2ccc3ccccc3c2)CC1 [5-01]
32 |  |  |  | 158 | 63.1 | 100 | CCCn1ccnc(NC2CCN(Cc3ccc4ccccc4c3)CC2)c1=O [5-02]
33 |  |  |  | 200 | 100 | 1000 | CC(=O)Cn1ccnc(NC2CCN(Cc3ccc4ccccc4c3)CC2)c1=O [5-03]
34 |  |  |  | 200 | 39.8 | 398 | CC(C)(C)C(=O)Cn1ccnc(NC2CCN(Cc3ccc4ccccc4c3)CC2)c1=O [5-04]
35 |  |  |  | 398 | 200 | 316 | N#CCCn1ccnc(NC2CCN(Cc3ccc4ccccc4c3)CC2)c1=O [5-05]
36 |  |  |  | 316 | 158 | 158 | O=c1c(NC2CCN(Cc3ccc4ccccc4c3)CC2)nccn1CCCC(c1ccc(F)cc1)c1ccc(F)cc1 [5-07]
37 |  |  |  | 100 | 50.1 | 15.8 | O=C(CCn1ccnc(NC2CCN(Cc3ccc4ccccc4c3)CC2)c1=O)c1ccccc1 [5-08]
38 |  |  |  | 200 | 79.4 | 50.1 | O=c1c(NC2CCN(Cc3ccc4ccccc4c3)CC2)nccn1Cc1cccc([N+](=O)[O-])c1 [5-09]
39 |  |  |  | 316 | 63.1 | 100 | O=Cc1ccc(-n2ccnc(NC3CCN(Cc4ccc5ccccc5c4)CC3)c2=O)cc1 [5-10]
40 |  |  |  | 398 | 63.1 | 39.8 | O=Cc1ccc(-n2ccnc(NC3CCN(Cc4ccc5ccccc5c4)CC3)c2=O)cc1F [5-11]
41 |  |  |  | 200 | 126 | 126 | O=c1c(NC2CCN(Cc3ccc4ccccc4c3)CC2)nccn1Cc1cccc(Br)c1 [5-13]
42 |  |  |  | 251 | 63.1 | 20 | O=c1c(NC2CCN(Cc3ccc4ccccc4c3)CC2)nccn1-c1nccs1 [6-01]
43 |  |  |  | 126 | 31.6 | 25.1 | O=c1c(NC2CCN(Cc3ccc4ccccc4c3)CC2)nccn1-c1ccc2[nH]ccc2c1 [6-02]
44 |  |  |  | 50.1 | 39.8 | 50.1 | O=c1c(NC2CCN(Cc3ccc4ccccc4c3)CC2)nccn1-c1ccc2cc[nH]c2c1 [6-03]
45 |  |  |  | 251 | 50.1 | 31.6 | O=c1c(NC2CCN(Cc3ccc4ccccc4c3)CC2)nccn1-c1csc2ccccc12 [6-04]
46 |  |  |  | 631 | 200 | 200 | O=c1c(NC2CCN(Cc3ccc4ccccc4c3)CC2)nccn1-c1cncnc1 [6-08]

Row | Structure (SMILES) | h-α2A pIC50 [1] | h-α2C pIC50 [2] | h-5HTT pIC50 [3] | IC50 [1] [nM] | IC50 [2] [nM] | IC50 [3] [nM]
47 | O=c1c(NC2CCN(Cc3ccc4ccccc4c3)CC2)nccn1-c1cnc2ccccc2c1 [6-09] |  |  |  | 200 | 126 | 50.1

— patent publication US20080269251A1, “Substituted Pyrazinone Derivatives as Alpha2C-Adrenoreceptor Antagonists” (priority 2005, published 2008)
